From PMC2581485, “Ca^2+ Signaling Occurs via Second Messenger Release from Intraorganelle Synthesis Sites” (Current Biology, 2008)

What was measured:
[1] = target: T1, recombinant ARCβ (Strongylocentrotus purpuratus, UniProt A5HNF4); assay: radiometric TLC of […]cADPR formation; format: biochemical; conditions: 16 nM substrate; labelled compound; 1 h, 20 °C; pH varied, acidic pH preferred
T1 construct: gene ARCB

[2] = target: T2, recombinant ARCα (Strongylocentrotus purpuratus, UniProt A5HNF3); assay: radiometric TLC of […]cADPR formation; format: biochemical; conditions: 16 nM substrate; labelled compound; 1 h, 20 °C; pH varied, acidic pH preferred
T2 construct: gene ARCA
T2 sequence (A5HNF3 entry or part of it): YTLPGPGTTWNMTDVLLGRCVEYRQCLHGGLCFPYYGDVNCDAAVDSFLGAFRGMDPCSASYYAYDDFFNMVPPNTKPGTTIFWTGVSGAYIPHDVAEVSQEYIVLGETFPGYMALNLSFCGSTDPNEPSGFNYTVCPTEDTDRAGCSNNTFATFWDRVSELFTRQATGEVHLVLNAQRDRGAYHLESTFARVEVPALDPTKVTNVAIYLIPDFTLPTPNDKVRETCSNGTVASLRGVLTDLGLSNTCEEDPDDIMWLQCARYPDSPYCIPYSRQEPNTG

T1 sequence (A5HNF4 entry or part of it): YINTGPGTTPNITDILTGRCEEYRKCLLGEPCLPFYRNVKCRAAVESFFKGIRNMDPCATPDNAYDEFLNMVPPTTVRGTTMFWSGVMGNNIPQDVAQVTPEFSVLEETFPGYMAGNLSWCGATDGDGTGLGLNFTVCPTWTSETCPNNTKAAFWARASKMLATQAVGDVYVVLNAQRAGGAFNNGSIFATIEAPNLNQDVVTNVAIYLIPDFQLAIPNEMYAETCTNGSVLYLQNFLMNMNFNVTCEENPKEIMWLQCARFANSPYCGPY

SMILES	radiometric TLC of [32P]cADPR formation [1]	radiometric TLC of [32P]cADPR formation [2]
N=c1c2ncn3c2ncn1[C@@H]1O[C@H](COP(=O)(O)OP(=O)(O)OC[C@H]2O[C@@H]3[C@H](O)[C@@H]2O)[C@@H](O)[C@H]1O [cADPR]	pH dependency of recombinant ARCα or ARCβ is shown	recombinant (Figure 3D) and endogenous (Figure 3C) sea urchin ARCs preferentially synthesize cADPR
NC(=O)c1ccc[n+]([C@@H]2O[C@H](COP(=O)([O-])OP(=O)(O)OC[C@H]3O[C@@H](n4cnc5c(N)ncnc54)[C@H](O)[C@@H]3O)[C@@H](O)[C@H]2O)c1 [β-NAD^+]	pH dependency of recombinant ARCα or ARCβ is shown	recombinant (Figure 3D) and endogenous (Figure 3C) sea urchin ARCs preferentially synthesize cADPR
